Test results from the NIST ThermoML archive (doi:10.1016/j.fluid.2015.10.026).
Numbers after ± are expanded uncertainties.

Details: Brillouin light scattering

CCC(C)(C)OC [2-methoxy-2-methylbutane]
Details	speed of sound [m/s]
443.15 K, 2500 kPa, Liquid	537.57 ± 2.9
443.15 K, 4000 kPa, Liquid	561.49 ± 3
443.15 K, 5500 kPa, Liquid	584.45 ± 3.1
443.15 K, 7000 kPa, Liquid	606.46 ± 3.3
443.15 K, 8500 kPa, Liquid	627.51 ± 3.4
443.15 K, 10000 kPa, Liquid	647.61 ± 3.5
453.15 K, 660 kPa, Liquid	468.81 ± 2.6
453.15 K, 2500 kPa, Liquid	495.6 ± 2.7
453.15 K, 4000 kPa, Liquid	520.74 ± 2.8
453.15 K, 5500 kPa, Liquid	544.94 ± 3
453.15 K, 7000 kPa, Liquid	568.2 ± 3.1
453.15 K, 8500 kPa, Liquid	590.53 ± 3.2
453.15 K, 10000 kPa, Liquid	611.92 ± 3.3
463.15 K, 820 kPa, Gas	194.03 ± 1.8
463.15 K, 820 kPa, Liquid	424.99 ± 2.5
463.15 K, 2500 kPa, Liquid	453.48 ± 2.5
463.15 K, 4000 kPa, Liquid	479.86 ± 2.7
463.15 K, 5500 kPa, Liquid	505.34 ± 2.8
463.15 K, 7000 kPa, Liquid	529.91 ± 3
463.15 K, 8500 kPa, Liquid	553.58 ± 3.1
463.15 K, 10000 kPa, Liquid	576.34 ± 3.2
473.15 K, 1010 kPa, Gas	187.27 ± 1.4
473.15 K, 1010 kPa, Liquid	380.39 ± 2.3
473.15 K, 4000 kPa, Liquid	438.87 ± 2.5
473.15 K, 5500 kPa, Liquid	465.66 ± 2.6
473.15 K, 7000 kPa, Liquid	491.59 ± 2.9
473.15 K, 8500 kPa, Liquid	516.66 ± 2.9
473.15 K, 10000 kPa, Liquid	540.87 ± 3
483.15 K, 1240 kPa, Gas	179.96 ± 1.7
483.15 K, 1240 kPa, Liquid	334.95 ± 2.1
483.15 K, 4000 kPa, Liquid	397.75 ± 2.3
483.15 K, 5500 kPa, Liquid	425.9 ± 2.4
488.15 K, 1370 kPa, Gas	175.42 ± 2
488.15 K, 1370 kPa, Liquid	311.9 ± 2
493.15 K, 1520 kPa, Gas	169.9 ± 4
493.15 K, 1520 kPa, Liquid	288.63 ± 1.9
493.15 K, 4000 kPa, Liquid	356.51 ± 2.1
493.15 K, 5500 kPa, Liquid	386.06 ± 2.3
498.15 K, 1680 kPa, Gas	163.13 ± 2.7
498.15 K, 1680 kPa, Liquid	265.12 ± 1.8
498.15 K, 4000 kPa, Liquid	335.85 ± 2
498.15 K, 5500 kPa, Liquid	366.12 ± 2.2
503.15 K, 1860 kPa, Gas	154.8 ± 3
503.15 K, 1860 kPa, Liquid	241.38 ± 1.7
503.15 K, 4000 kPa, Liquid	315.16 ± 2
503.15 K, 5500 kPa, Liquid	346.15 ± 2.1
508.15 K, 2060 kPa, Gas	144.62 ± 6.6
508.15 K, 2060 kPa, Liquid	217.4 ± 1.6
508.15 K, 4000 kPa, Liquid	294.43 ± 1.9
508.15 K, 5500 kPa, Liquid	326.16 ± 2
513.15 K, 2270 kPa, Gas	132.28 ± 3.9
513.15 K, 2270 kPa, Liquid	193.18 ± 1.5
513.15 K, 4000 kPa, Liquid	273.68 ± 1.8
513.15 K, 5500 kPa, Liquid	306.15 ± 1.9
518.15 K, 2500 kPa, Gas	117.47 ± 3
518.15 K, 2500 kPa, Liquid	168.7 ± 1.4
518.15 K, 4000 kPa, Liquid	252.89 ± 1.8
518.15 K, 5500 kPa, Liquid	286.12 ± 1.9
523.15 K, 2760 kPa, Gas	99.85 ± 3
523.15 K, 2760 kPa, Liquid	143.98 ± 1.3
523.15 K, 4000 kPa, Liquid	232.08 ± 1.7
523.15 K, 5500 kPa, Liquid	266.07 ± 1.8
537.15 K, 5000 kPa, Fluid (supercritical or subcritical phases)	228.75 ± 2.2
537.15 K, 6000 kPa, Fluid (supercritical or subcritical phases)	279.45 ± 3.3
538.63 K, 4000 kPa, Fluid (supercritical or subcritical phases)	166.74 ± 2
540.07 K, 7000 kPa, Fluid (supercritical or subcritical phases)	308.01 ± 3.1
547.15 K, 5000 kPa, Fluid (supercritical or subcritical phases)	173.14 ± 2.4
547.15 K, 6000 kPa, Fluid (supercritical or subcritical phases)	231.15 ± 3.5
548.05 K, 7000 kPa, Fluid (supercritical or subcritical phases)	273.71 ± 3.4
548.23 K, 4000 kPa, Fluid (supercritical or subcritical phases)	93.78 ± 1.8
557.15 K, 5000 kPa, Fluid (supercritical or subcritical phases)	137.45 ± 1.6
557.15 K, 6000 kPa, Fluid (supercritical or subcritical phases)	185.53 ± 3.4
557.95 K, 4000 kPa, Fluid (supercritical or subcritical phases)	114.59 ± 1.4
558.89 K, 7000 kPa, Fluid (supercritical or subcritical phases)	235.39 ± 3.7
567.15 K, 5000 kPa, Fluid (supercritical or subcritical phases)	122.01 ± 1.2
567.15 K, 6000 kPa, Fluid (supercritical or subcritical phases)	152.32 ± 2.7
567.35 K, 4000 kPa, Fluid (supercritical or subcritical phases)	139.87 ± 1.3
568.4 K, 7000 kPa, Fluid (supercritical or subcritical phases)	200.04 ± 3.6
577 K, 5000 kPa, Fluid (supercritical or subcritical phases)	139.01 ± 1.2
577 K, 6000 kPa, Fluid (supercritical or subcritical phases)	140.84 ± 1.7
577.42 K, 7000 kPa, Fluid (supercritical or subcritical phases)	176.29 ± 2.6
577.5 K, 4000 kPa, Fluid (supercritical or subcritical phases)	156.64 ± 1.4
586.07 K, 7000 kPa, Fluid (supercritical or subcritical phases)	158.23 ± 1.7
586.09 K, 6000 kPa, Fluid (supercritical or subcritical phases)	146.23 ± 1.2
586.58 K, 4000 kPa, Fluid (supercritical or subcritical phases)	172.49 ± 1.4
586.8 K, 5000 kPa, Fluid (supercritical or subcritical phases)	155.55 ± 1.3
597.62 K, 7000 kPa, Fluid (supercritical or subcritical phases)	156.64 ± 1.3
598.22 K, 6000 kPa, Fluid (supercritical or subcritical phases)	159.43 ± 1.3
599.01 K, 5000 kPa, Fluid (supercritical or subcritical phases)	172.16 ± 1.4
599.67 K, 4000 kPa, Fluid (supercritical or subcritical phases)	188.97 ± 1.5
607.67 K, 7000 kPa, Fluid (supercritical or subcritical phases)	165.36 ± 1.4
608.42 K, 6000 kPa, Fluid (supercritical or subcritical phases)	174.49 ± 1.5
609.14 K, 5000 kPa, Fluid (supercritical or subcritical phases)	187.44 ± 1.4
610.53 K, 4000 kPa, Fluid (supercritical or subcritical phases)	204.31 ± 1.5
616.46 K, 7000 kPa, Fluid (supercritical or subcritical phases)	175.98 ± 1.5
617.13 K, 6000 kPa, Fluid (supercritical or subcritical phases)	187.48 ± 1.5
618.08 K, 5000 kPa, Fluid (supercritical or subcritical phases)	199.99 ± 1.5
618.29 K, 4000 kPa, Fluid (supercritical or subcritical phases)	213.66 ± 1.5
626.75 K, 7000 kPa, Fluid (supercritical or subcritical phases)	188.95 ± 1.5
627.35 K, 6000 kPa, Fluid (supercritical or subcritical phases)	199.55 ± 1.5
628.15 K, 5000 kPa, Fluid (supercritical or subcritical phases)	210.83 ± 1.5
629.14 K, 4000 kPa, Fluid (supercritical or subcritical phases)	222.93 ± 1.5
636.88 K, 6000 kPa, Fluid (supercritical or subcritical phases)	207.42 ± 1.5
636.88 K, 7000 kPa, Fluid (supercritical or subcritical phases)	199.92 ± 1.5
638.41 K, 5000 kPa, Fluid (supercritical or subcritical phases)	218.7 ± 1.5
639.77 K, 4000 kPa, Fluid (supercritical or subcritical phases)	229.85 ± 1.6
645.57 K, 5000 kPa, Fluid (supercritical or subcritical phases)	222.56 ± 1.5
645.57 K, 6000 kPa, Fluid (supercritical or subcritical phases)	213.28 ± 1.6
645.57 K, 7000 kPa, Fluid (supercritical or subcritical phases)	204.49 ± 1.5
646.51 K, 4000 kPa, Fluid (supercritical or subcritical phases)	233.5 ± 1.6
656.29 K, 5000 kPa, Fluid (supercritical or subcritical phases)	226.62 ± 1.5
656.29 K, 7000 kPa, Fluid (supercritical or subcritical phases)	208.95 ± 1.6
656.31 K, 6000 kPa, Fluid (supercritical or subcritical phases)	217.14 ± 1.6
657.59 K, 4000 kPa, Fluid (supercritical or subcritical phases)	237.14 ± 1.6
669.94 K, 5000 kPa, Fluid (supercritical or subcritical phases)	230.37 ± 1.6
669.94 K, 7000 kPa, Fluid (supercritical or subcritical phases)	211.48 ± 1.5
669.98 K, 6000 kPa, Fluid (supercritical or subcritical phases)	220.01 ± 1.6
670.97 K, 4000 kPa, Fluid (supercritical or subcritical phases)	240.91 ± 1.6
680.25 K, 5000 kPa, Fluid (supercritical or subcritical phases)	233.53 ± 1.6
680.27 K, 4000 kPa, Fluid (supercritical or subcritical phases)	242.88 ± 1.6
680.27 K, 7000 kPa, Fluid (supercritical or subcritical phases)	215.49 ± 1.6
680.32 K, 6000 kPa, Fluid (supercritical or subcritical phases)	223.86 ± 1.6
